Source: PubChem BioAssay AID1963837 (Molecular Pharmacology Branch, DTP, NCI, 2024)
pIC50: −log10 of the molar value.

Test system: 843126-344-R-J1-PDC complex spheroid viability
Assay: Anticancer human tumor 843126-344-R-J1-PDC patient-derived melanoma cell line growth inhibition [POLQ]
Conditions: for pIC50: curve of first compound; for viability, T/C: stronger effect = lower value
In short: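 Complex spheroid viability model combining PDC tumour cells with endothelial (HUVEC) and MSC stromal cells. Novobiocin, ART-558 or RP6685 were tested singly and in combination with standard and investigational anticancer drugs. Each was titrated in half-log steps from near clinical Cmax, or from 10 microM where Cmax was unknown.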

[1] = second compound 0.0316 µM, first compound 0.0316 µM
[2] = second compound 0.0316 µM, first compound 0.1 µM
[3] = second compound 0.0316 µM, first compound 0.316 µM
[4] = second compound 0.0316 µM, first compound 1 µM
[5] = second compound 0.0316 µM, first compound 3.16 µM
[6] = second compound 0.0316 µM, first compound 10 µM
[7] = second compound 0.1 µM, first compound 0.0316 µM
[8] = second compound 0.1 µM, first compound 0.1 µM
[9] = second compound 0.1 µM, first compound 0.316 µM
[10] = second compound 0.1 µM, first compound 1 µM
[11] = second compound 0.1 µM, first compound 3.16 µM
[12] = second compound 0.1 µM, first compound 10 µM
[13] = second compound 0.316 µM, first compound 0.0316 µM
[14] = second compound 0.316 µM, first compound 0.1 µM
[15] = second compound 0.316 µM, first compound 0.316 µM
[16] = second compound 0.316 µM, first compound 1 µM
[17] = second compound 0.316 µM, first compound 3.16 µM
[18] = second compound 0.316 µM, first compound 10 µM
[19] = second compound 1 µM, first compound 0.0316 µM
[20] = second compound 1 µM, first compound 0.1 µM
[21] = second compound 1 µM, first compound 0.316 µM
[22] = second compound 1 µM, first compound 1 µM
[23] = second compound 1 µM, first compound 3.16 µM
[24] = second compound 1 µM, first compound 10 µM
[25] = second compound 3.16 µM, first compound 0.0316 µM
[26] = second compound 3.16 µM, first compound 0.1 µM
[27] = second compound 3.16 µM, first compound 0.316 µM
[28] = second compound 3.16 µM, first compound 1 µM
[29] = second compound 3.16 µM, first compound 3.16 µM
[30] = second compound 3.16 µM, first compound 10 µM
[31] = second compound 10 µM, first compound 0.0316 µM
[32] = second compound 10 µM, first compound 0.1 µM
[33] = second compound 10 µM, first compound 0.316 µM
[34] = second compound 10 µM, first compound 1 µM
[35] = second compound 10 µM, first compound 3.16 µM
[36] = second compound 10 µM, first compound 10 µM
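For viability, T/C in this document: spheroids exposed to drugs for seven days before readout.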

Molecule `COc1cc(C2c3cc4c(cc3C(OC3OC5COC(C)OC5C(O)C3O)C3COC(=O)C23)OCO4)cc(OC)c1O` (stereo unspecified) + Cc1cccc(N(C)C(=O)C2C(O)CCN2c2nc(C)cc(C(F)(F)F)c2C#N)c1 has a pIC50 (second compound 0.0316 µM) of 5.06, a pIC50 (second compound 0.1 µM) of 5.08 and a pIC50 (second compound 0.316 µM) of 5.22. The pIC50 (second compound 1 µM) was under 5.00, the pIC50 (second compound 3.16 µM) was 5.26 and the pIC50 (second compound 10 µM) was 5.42. The viability, T/C [1] was 86.5%, the viability, T/C [2] was 81.5% and the viability, T/C [3] was 77.9%. It also gave a viability, T/C [4] of 92.3%, a viability, T/C [5] of 55.3% and a viability, T/C [6] of 49.3%. The viability, T/C [7] was 83.2%, the viability, T/C [8] was 103% and the viability, T/C [9] was 100%. It also gave a viability, T/C [10] of 68.9%, a viability, T/C [11] of 72.8% and a viability, T/C [12] of 45.5%. It also gave a viability, T/C [13] of 82.1%, a viability, T/C [14] of 84.1% and a viability, T/C [15] of 92.7%. For the same molecule, the viability, T/C [16] was 71.8%, the viability, T/C [17] was 61.2% and the viability, T/C [18] was 42.1%. For the same molecule, the viability, T/C [19] was 86.1%, the viability, T/C [20] was 90.3% and the viability, T/C [21] was 86.6%. The viability, T/C [22] was 82.3%, the viability, T/C [23] was 56.9% and the viability, T/C [24] was 50.2%. For the same molecule, the viability, T/C [25] was 77.9%, the viability, T/C [26] was 79.7% and the viability, T/C [27] was 84.4%. The viability, T/C [28] was 75.9%, the viability, T/C [29] was 54.2% and the viability, T/C [30] was 45.5%. For the same molecule, the viability, T/C [31] was 84.1%, the viability, T/C [32] was 83.1% and the viability, T/C [33] was 79%. The viability, T/C [34] was 74%, the viability, T/C [35] was 50.6% and the viability, T/C [36] was 44.8%.

`COc1cccc2c1C(=O)c1c(O)c3c(c(O)c1C2=O)CC(O)(C(=O)CO)CC3OC1CC(N)C(O)C(C)O1` (stereo unspecified) + Cc1cccc(N(C)C(=O)C2C(O)CCN2c2nc(C)cc(C(F)(F)F)c2C#N)c1 was tested, and the pIC50 (second compound 0.0316 µM) was 6.75, the pIC50 (second compound 0.1 µM) was 6.61 and the pIC50 (second compound 0.316 µM) was 6.77. For the same molecule, the pIC50 (second compound 1 µM) was 6.69, the pIC50 (second compound 3.16 µM) was 6.74 and the pIC50 (second compound 10 µM) was 6.82. For the same molecule, the viability, T/C [1] was 92.8%, the viability, T/C [2] was 62.1% and the viability, T/C [3] was 39.9%. The viability, T/C [4] was 11%, the viability, T/C [5] was 3.5% and the viability, T/C [6] was 3.68%. The viability, T/C [7] was 87.9%, the viability, T/C [8] was 72.7% and the viability, T/C [9] was 45.2%. It also gave a viability, T/C [10] of 9.74%, a viability, T/C [11] of 4.9% and a viability, T/C [12] of 3.68%. For the same molecule, the viability, T/C [13] was 92.7%, the viability, T/C [14] was 60.7% and the viability, T/C [15] was 38.6%. It also gave a viability, T/C [16] of 10.6%, a viability, T/C [17] of 3.96% and a viability, T/C [18] of 3.01%. The viability, T/C [19] was 90.8%, the viability, T/C [20] was 69.5% and the viability, T/C [21] was 39.7%. It also gave a viability, T/C [22] of 7.4%, a viability, T/C [23] of 3.66% and a viability, T/C [24] of 3.67%. It also gave a viability, T/C [25] of 74.3%, a viability, T/C [26] of 64% and a viability, T/C [27] of 37.2%. It also gave a viability, T/C [28] of 5.9%, a viability, T/C [29] of 3.46% and a viability, T/C [30] of 3.96%. It also gave a viability, T/C [31] of 68.8%, a viability, T/C [32] of 63.3% and a viability, T/C [33] of 26.3%. It also gave a viability, T/C [34] of 4.4%, a viability, T/C [35] of 3.99% and a viability, T/C [36] of 3.14%.

Molecule `O=c1[nH]cc(F)c(=O)[nH]1` + Cc1cccc(N(C)C(=O)C2C(O)CCN2c2nc(C)cc(C(F)(F)F)c2C#N)c1 has a pIC50 (second compound 0.0316 µM) of under 5.00, a pIC50 (second compound 0.1 µM) of under 5.00 and a pIC50 (second compound 0.316 µM) of under 5.00. It also gave a pIC50 (second compound 1 µM) of under 5.00, a pIC50 (second compound 3.16 µM) of under 5.00 and a pIC50 (second compound 10 µM) of under 5.00. It also gave a viability, T/C [1] of 101%, a viability, T/C [2] of 112% and a viability, T/C [3] of 104%. For the same molecule, the viability, T/C [4] was 101%, the viability, T/C [5] was 87.3% and the viability, T/C [6] was 79.3%. It also gave a viability, T/C [7] of 99.8%, a viability, T/C [8] of 98.3% and a viability, T/C [9] of 96.5%. The viability, T/C [10] was 97.5%, the viability, T/C [11] was 81.5% and the viability, T/C [12] was 93.2%. It also gave a viability, T/C [13] of 105%, a viability, T/C [14] of 108% and a viability, T/C [15] of 96.7%. The viability, T/C [16] was 82.2%, the viability, T/C [17] was 110% and the viability, T/C [18] was 103%. It also gave a viability, T/C [19] of 101%, a viability, T/C [20] of 88.6% and a viability, T/C [21] of 107%. The viability, T/C [22] was 110%, the viability, T/C [23] was 113% and the viability, T/C [24] was 96.5%. The viability, T/C [25] was 99.3%, the viability, T/C [26] was 94.5% and the viability, T/C [27] was 113%. For the same molecule, the viability, T/C [28] was 95.8%, the viability, T/C [29] was 103% and the viability, T/C [30] was 91.5%. For the same molecule, the viability, T/C [31] was 91.1%, the viability, T/C [32] was 85.8% and the viability, T/C [33] was 104%. The viability, T/C [34] was 102%, the viability, T/C [35] was 111% and the viability, T/C [36] was 90%.
